Here are results for two compounds from ChEMBL document CHEMBL1201862, “PubChem BioAssay data set” (2004).

The target of assay [1] is Trypsin (Sus scrofa, UniProt P00761). The assay is described as follows: trypsin protease activity blockade – biochemical, quenched peptide fluorescence, cherry-pick, selectivity assay for Rce1 protease inhibitor project, dose response (AID 488789).
In assay [2] the target is CAAX prenyl protease 1 (Saccharomyces cerevisiae S288c, UniProt P47154). The assay is described as follows: yeast CAAX protease Ste24 inhibition – biochemical, S. cerevisiae, plate reader, cherry-pick, dose response (AID 488815).
Assay [3] addresses CAAX prenyl protease 2 (Saccharomyces cerevisiae S288c, UniProt Q03530). In kind it is biochemical.
For assay [4], the system named is HEK293. In words: cells. In kind it is functional, cell-based. As to conditions: Homo sapiens.
In assay [5] the target is T1, Nucleotide-binding oligomerization domain-containing protein 2 (Homo sapiens, UniProt Q9HC29). In words: inhibition of NOD2 signaling – set 2, SAR follow-up (AID 2475). Format: functional.
In assay [6] the test system is HEK293. The assay is described as follows: inhibition of NOD1-driven NF-kB reporter – cell-based, luminescence, uHTS, primary screen (AID 1578). In kind it is functional. As to conditions: Homo sapiens.
Assay [7] deals with T2, Tumor necrosis factor (Homo sapiens, UniProt P01375). In words: analog potency on TNFa NF-kB signaling – cell-based, set 3, SAR follow-up (AID 2801). Format: functional.
Assay [8] addresses T3, Nucleotide-binding oligomerization domain-containing protein 1 (Homo sapiens, UniProt Q9Y239).
T3 sequence (Q9Y239 whole entry): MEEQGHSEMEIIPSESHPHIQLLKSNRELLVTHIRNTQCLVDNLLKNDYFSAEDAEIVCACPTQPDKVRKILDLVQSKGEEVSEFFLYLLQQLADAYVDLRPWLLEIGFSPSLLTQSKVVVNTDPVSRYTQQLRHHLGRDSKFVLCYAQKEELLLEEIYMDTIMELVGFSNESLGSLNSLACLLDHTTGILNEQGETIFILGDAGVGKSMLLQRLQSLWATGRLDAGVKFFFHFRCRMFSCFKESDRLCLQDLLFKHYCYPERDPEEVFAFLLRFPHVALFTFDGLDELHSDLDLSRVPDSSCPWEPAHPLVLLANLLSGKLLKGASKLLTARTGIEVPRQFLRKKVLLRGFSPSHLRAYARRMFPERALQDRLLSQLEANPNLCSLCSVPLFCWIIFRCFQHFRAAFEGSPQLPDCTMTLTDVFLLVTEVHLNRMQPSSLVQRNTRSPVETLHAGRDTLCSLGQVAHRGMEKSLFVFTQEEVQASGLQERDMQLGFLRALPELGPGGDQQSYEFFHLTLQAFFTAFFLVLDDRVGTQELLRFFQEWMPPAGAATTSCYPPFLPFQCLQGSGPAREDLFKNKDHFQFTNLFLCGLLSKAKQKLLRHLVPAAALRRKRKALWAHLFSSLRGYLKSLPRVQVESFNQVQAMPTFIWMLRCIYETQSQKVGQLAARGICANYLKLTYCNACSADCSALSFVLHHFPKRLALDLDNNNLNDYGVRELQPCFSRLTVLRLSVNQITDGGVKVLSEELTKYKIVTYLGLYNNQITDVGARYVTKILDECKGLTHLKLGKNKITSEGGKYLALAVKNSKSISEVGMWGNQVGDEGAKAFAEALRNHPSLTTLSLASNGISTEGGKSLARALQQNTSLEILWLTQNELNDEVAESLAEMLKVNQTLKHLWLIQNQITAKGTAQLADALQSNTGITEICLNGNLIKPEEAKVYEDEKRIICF
The assay is described as follows: blockers of NOD1 pathway activity – revised, SAR follow-up (AID 2333). In kind it is functional.

The subject of assay [9] is HEK293. The assay is described as follows: NOD2 signaling inhibitors in MDP-stimulated cells, cell-based, uHTS, luminescence (AID 2001). In kind it is functional. As to conditions: Homo sapiens.
For assay [10], the target named is T3, Nucleotide-binding oligomerization domain-containing protein 1. In words: SAR analysis of NF-kappaB dependent luciferase using DAP as an inducer - Set 2. [Related pubchem assays (depositor defined):AID1566, AID1575, AID1578, AID1579, AID1849, AID1852, AID2264]. Format: functional.
Assay [11] addresses T4, Interleukin-8 (Homo sapiens, UniProt P10145).
T4 sequence (P10145 whole entry): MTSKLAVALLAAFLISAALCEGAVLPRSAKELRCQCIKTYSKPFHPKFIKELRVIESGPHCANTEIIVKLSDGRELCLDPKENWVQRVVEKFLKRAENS
The assay is described as follows: SAR analysis of Tumor necrosis factor alpha (TNF-alpha) induced IL-8 secretion in MCF-7/NOD1 cells - Set 2. [Related pubchem assays (depositor defined):AID1575, AID2250, AID2260]. Format: functional, cell-based.

The target in assay [12] is T2, Tumor necrosis factor. The assay is described as follows: analog potency on TNFa NF-kB signaling – cell-based, revised, SAR follow-up (AID 2337). In kind it is functional.
Assay [13] addresses T3, Nucleotide-binding oligomerization domain-containing protein 1. The assay is described as follows: SAR analysis of compounds that inhibit NOD1 - Set 3. [Related pubchem assays (depositor defined):AID1566, AID1575, AID1578, AID1849, AID1852, AID2333, AID2335, AID2466]. Format: functional.
For assay [14], the target named is T4, Interleukin-8. In words: SAR analysis of GM-Tri-DAP induced IL-8 secretion in MCF-7/NOD1 cells - Set 2. [Related pubchem assays (depositor defined):AID1575, AID1578, AID2333]. In kind it is functional, cell-based.
The target of assay [15] is T1, Nucleotide-binding oligomerization domain-containing protein 2. In words: inhibition of MDP-driven NOD2 NF-kB reporter – cell-based, set 3, SAR follow-up (AID 2799). In kind it is functional.
The test system of assay [16] is HEK293. In words: cells. The settings on record: Homo sapiens.
For assay [17], the system named is HEK293. In words: cells. Format: functional, cell-based. As to conditions: Homo sapiens. The source holds these as a separate data set.
Assay [18] deals with T1, Nucleotide-binding oligomerization domain-containing protein 2. In words: PubChem AID 2334. In kind it is functional.
Assay [19] deals with HEK293. In words: SAR analysis of compounds that are cytotoxic to HEK293 - Set 3. [Related pubchem assays (depositor defined):AID1575, AID1578, AID1848, AID1849, AID2001, AID2333, AID2334, AID2335, AID2337, AID2469]. Format: functional, cell-based. The settings on record: Homo sapiens.
In assay [20] the test system is HEK293. In words: SAR analysis of compounds that are cytotoxic to HEK293 - Set 2. [Related pubchem assays (depositor defined):AID1575, AID1578, AID1849, AID2001, AID2333, AID2334, AID2335, AID2337, AID2800]. Format: functional, cell-based. The settings on record: Homo sapiens.

Values joined by “and” are separate entries in the source; they are usually repeats but may differ in a detail not shown here. Equal entries are not always repeated. Active and inactive are the calls of the source.

T2 sequence (P01375 whole entry, the tested form may be a part): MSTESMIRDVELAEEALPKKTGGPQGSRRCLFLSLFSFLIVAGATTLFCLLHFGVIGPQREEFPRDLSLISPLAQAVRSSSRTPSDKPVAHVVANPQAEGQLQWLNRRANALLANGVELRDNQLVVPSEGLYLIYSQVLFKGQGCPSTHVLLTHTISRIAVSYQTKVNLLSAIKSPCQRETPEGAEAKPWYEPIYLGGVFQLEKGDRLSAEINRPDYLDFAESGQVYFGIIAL
T1 sequence (Q9HC29 whole entry, the tested form may be a part): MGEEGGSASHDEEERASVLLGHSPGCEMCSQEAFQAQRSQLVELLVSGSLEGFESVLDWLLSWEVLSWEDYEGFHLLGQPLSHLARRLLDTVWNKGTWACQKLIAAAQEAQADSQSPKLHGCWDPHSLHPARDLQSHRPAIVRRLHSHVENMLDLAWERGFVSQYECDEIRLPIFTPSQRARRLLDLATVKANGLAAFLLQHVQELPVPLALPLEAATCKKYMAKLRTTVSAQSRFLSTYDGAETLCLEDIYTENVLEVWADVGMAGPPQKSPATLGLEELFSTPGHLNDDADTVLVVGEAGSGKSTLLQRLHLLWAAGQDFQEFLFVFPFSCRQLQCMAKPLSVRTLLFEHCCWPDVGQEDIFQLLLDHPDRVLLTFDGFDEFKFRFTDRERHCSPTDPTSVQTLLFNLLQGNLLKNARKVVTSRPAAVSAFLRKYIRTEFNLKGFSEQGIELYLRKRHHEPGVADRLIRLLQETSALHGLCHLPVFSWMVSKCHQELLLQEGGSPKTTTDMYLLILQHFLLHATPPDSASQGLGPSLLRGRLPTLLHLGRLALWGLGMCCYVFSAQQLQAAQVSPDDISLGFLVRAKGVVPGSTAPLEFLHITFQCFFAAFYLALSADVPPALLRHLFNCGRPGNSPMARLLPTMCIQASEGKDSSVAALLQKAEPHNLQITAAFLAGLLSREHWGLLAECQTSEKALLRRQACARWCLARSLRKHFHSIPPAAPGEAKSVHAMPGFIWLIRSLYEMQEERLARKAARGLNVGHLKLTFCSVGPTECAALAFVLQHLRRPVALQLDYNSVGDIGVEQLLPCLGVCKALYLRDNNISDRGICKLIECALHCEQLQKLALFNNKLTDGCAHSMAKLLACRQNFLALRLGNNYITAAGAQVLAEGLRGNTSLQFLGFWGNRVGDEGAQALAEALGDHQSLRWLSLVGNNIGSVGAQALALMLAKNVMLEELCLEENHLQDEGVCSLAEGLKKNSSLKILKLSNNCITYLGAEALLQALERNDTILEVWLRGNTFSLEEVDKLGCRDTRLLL
Chain of CAAX prenyl protease 1 (P47154 whole entry): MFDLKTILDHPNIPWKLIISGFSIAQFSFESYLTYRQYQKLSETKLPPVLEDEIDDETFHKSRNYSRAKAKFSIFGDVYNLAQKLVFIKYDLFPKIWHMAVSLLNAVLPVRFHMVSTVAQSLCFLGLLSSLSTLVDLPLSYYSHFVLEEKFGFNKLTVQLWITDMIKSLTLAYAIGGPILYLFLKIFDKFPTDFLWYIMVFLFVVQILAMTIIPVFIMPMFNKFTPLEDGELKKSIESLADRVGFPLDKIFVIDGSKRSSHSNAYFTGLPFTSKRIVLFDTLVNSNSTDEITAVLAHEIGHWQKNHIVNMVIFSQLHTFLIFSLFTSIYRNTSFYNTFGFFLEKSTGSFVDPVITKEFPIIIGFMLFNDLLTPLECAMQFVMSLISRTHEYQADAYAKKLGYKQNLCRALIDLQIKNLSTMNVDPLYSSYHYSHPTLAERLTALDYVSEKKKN
Chain of CAAX prenyl protease 2 (Q03530 whole entry): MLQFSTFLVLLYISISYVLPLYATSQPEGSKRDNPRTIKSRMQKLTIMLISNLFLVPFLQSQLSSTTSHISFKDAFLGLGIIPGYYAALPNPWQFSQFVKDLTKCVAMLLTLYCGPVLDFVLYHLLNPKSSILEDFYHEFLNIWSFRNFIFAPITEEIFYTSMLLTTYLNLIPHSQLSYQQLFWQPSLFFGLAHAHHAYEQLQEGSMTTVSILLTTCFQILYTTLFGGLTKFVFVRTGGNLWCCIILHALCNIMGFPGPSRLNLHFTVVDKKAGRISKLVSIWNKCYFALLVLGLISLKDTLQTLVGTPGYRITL
Chain of Trypsin (P00761 whole entry): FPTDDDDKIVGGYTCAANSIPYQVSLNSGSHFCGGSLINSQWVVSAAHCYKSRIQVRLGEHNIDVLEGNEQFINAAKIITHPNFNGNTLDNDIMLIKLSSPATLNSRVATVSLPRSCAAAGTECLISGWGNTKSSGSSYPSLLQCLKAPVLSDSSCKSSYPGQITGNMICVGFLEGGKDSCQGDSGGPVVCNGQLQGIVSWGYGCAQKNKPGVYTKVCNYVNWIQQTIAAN

As to `CCCCN1C(=O)/C(=C/Nc2cccnc2Cl)C(=O)N(CCCCl)C1=O`, the AC50 (usually the midpoint of the concentration-response curve, whichever way the signal moves) in assay [1] was 47.1 µM (active); in [2], 7.88 µM (active); in assay [3], 40.4 µM (active).

Turning to `C/C=C/Cn1c(SCCCc2ccccc2)nc2c1c(=O)[nH]c(=O)n2C`, the IC50 (as a rule, the concentration at which inhibition is half-maximal) in [4] was > 20 µM (inactive); in [5] it was 4.18 µM (active); in [7], 18.2 µM (active) and 18.6 µM (inactive); in assay [8], 1.81 µM (active); in assay [9], 16.2 µM (inactive); in assay [10], 14.4 µM (active). Moreover, the IC50 in assay [11] was > 25 µM (inactive); in assay [12] it was 62.7 µM (inactive); in assay [13], 1.36 µM (active); in [14], 3.43 µM (active); in assay [15], 7.97 µM (active) and 10.6 µM (active); in assay [16], > 20 µM (inactive). Besides, the IC50 in assay [17] was > 20 µM (inactive); in [18], 16.9 µM (active); in assay [19], > 20 µM (inactive); in [20], > 20 µM (inactive). The EC50 (in general, the concentration at which the effect is half-maximal) in assay [6] is 6.37 µM (active).
